Data taken from patent US11654196B2, “Dosing regimens for echinocandin class compounds” (priority 2012, dated 2023).
Like-named read-outs stand apart in the source and are kept apart here. *1 amine or outer side, *2 acyl side, *3 side chain or, on linkers, in order; H or OH if unused. Where a SMILES comes first, the peptide text is derived from it. Bridges are numbered along the chain shown (N, C = ends). [ ]: non-standard residue; d: D form. The star is where a group is joined. pTerphenylCO(4''-OnC5H11) = CCCCCOc1ccc(-c2ccc(-c3ccc(C(=O)*)cc3)cc2)cc1; Orn(4R-OH,5R-OH) = O=C([C@H](C[C@@H](O)[C@@H](O)N[*:3])N[*:1])[*:2]; hTyr(3S-OH,4S-OH) = N[C@H](C(=O)O)[C@H](O)[C@@H](O)c1ccc(O)cc1; Pro(3S-OH,4S-Me) = C[C@H]1CN[C@H](C(=O)O)[C@H]1O; Hyp = O=C(O)[C@@H]1C[C@@H](O)CN1

Columns and labels:
[1] = Pharmacokinetics (oral bioavailability) following oral administration in beagle dogs; assay type: in vivo; set-up: key to Improvement (ratio of % oral bioavailability to saline): NI = no improvement in oral bioavailability in comparison to saline; conditions: for % BA / Improvement (ratio of % oral bioavailability to saline): oral
Experimental: Echinocandin class compounds were administered to beagle dogs weighing approximately 6-10 kg. Each animal received the appropriate prepared test article in a single oral capsule dose at a target dose level of about 7-10 mg/kg. Immediately after dosing, each animal was offered 20 mL-30 mL of water orally (Groups 1-4) or 30 mL of water orally to assist in swallowing the capsule.
Animals were treated and blood samples were drawn and analyzed as provided in Example 1.
The bioavailability of each oral dose formulation was estimated by comparison to intravenous plasma concentration data in dogs from Example 1. The results provided in Table 3 show the oral bioavailability for the echinocandin class compound in saline (formulation 11), and the improvement over saline with the use of a formulation of the invention.

[2] = Stability in human plasma; assay type: in vitro ADME; conditions: human plasma, 37° C.
Experimental: (§1) Stock solutions of compound 22 and anidulafungin were prepared in DMSO at a concentration of 1 mg/mL. Plasma samples were prepared by mixing plasma with 10% volume of 1 M sodium phosphate, pH 7.4, to minimize pH fluctuation, and stock solution to produce plasma samples containing approximately 10,000 ng/mL compound 22 or anidulafungin. For the stability experiments in PBS buffer, plasma was replaced with phosphate buffered saline, pH 7.4. The DMSO concentration was 1% in the final incubation. Multiple individual aliquots (0.5 mL each) were prepared, capped, and incubated at 37° C. At each stability time point, the reaction was stopped by removing the sample from the incubator and adding 0.5 mL of acetonitrile containing internal standard. Samples were centrifuged for approximately 5 minutes at 10000 rpm to precipitate the proteins. Stability was measured in five different matrices (i.e. rat plasma, dog plasma, monkey plasma, human plasma, and PBS). An aliquot (100 μL) of supernatant of each sample was assayed by HPLC. The percentage of anidulafungin and compound 22 remaining at each time point was calculated by dividing the peak area ratio at each time point by the peak area ratio at time zero.

[3] = Circulating half-life in monkey; assay type: in vivo; conditions: in vivo, assays conducted by applicant, read-out: Half-life (converted)
[4] = Circulating half-life in chimpanzee; assay type: in vivo; conditions: in vivo, iv, 1 mg/kg, assays conducted by applicant, read-out: Half-life (converted)
[5] = Stability in phosphate buffered saline (PBS); assay type: physicochemical; conditions: PBS pH 7.4, 37° C.
Experimental: as §1

[6] = Circulating half-life in dog; assay type: in vivo; conditions: beagle, in vivo, assays conducted by applicant, read-out: Half-life (converted)
[7] = Pharmacokinetics following intravenous administration in beagle dogs; assay type: in vivo; conditions: 1.4 mg/kg IV slow bolus
Experimental: Echinocandin class compounds were administered to beagle dogs weighing approximately 6-10 kg. Each compound was dosed at 1.4 mg/kg in aqueous saline (with or without 0.5% Tween) over course of 1-10 minutes. […] The dogs were fasted at least 12 hours prior to each dosing and offered food after the 4-hour blood sample was taken; water was withheld for 1 hour prior to and 4 hours following each dosing event. The dose for each animal was based on its most recent body weight. The test article was injected intravenously via a catheter placed in the cephalic vein as a slow bolus.
Blood was collected via the jugular vein. All blood samples (1 mL each) were collected into K3EDTA tubes. Following blood collection, the samples were immediately inverted several times and were held on wet ice pending centrifugation. The samples were centrifuged within 30 minutes of collection under refrigeration (˜5° C. for 10 minutes at 2000 g) to obtain plasma. The plasma was frozen immediately on dry ice after separation. The plasma samples were stored at approximately ˜70° C. until analysis.
Plasma (100 μL) was precipitated with 400 μL of 0.1% formic acid in acetonitrile containing the internal standard (100 ng/mL pneumocandin). The samples were then capped and vortexed for about 30 seconds followed by centrifugation at 14,000 rpm at room temperature for 10 minutes. Following centrifugation 200 μL of supernatant was transferred to plastic autosampler vials containing 200 μL of 0.1% formic acid in water and vortexed. Samples were then analyzed by LCMSMS.
All pharmacokinetic calculations were performed using WinNonlin version 4.1 (Pharsight Corp) by noncompartmental analysis.

[8] = Circulating half-life in rat; assay type: in vivo; conditions: in vivo, assays conducted by applicant, read-out: Half-life (converted)
[9] = Solubility in aqueous media of varying pH; assay type: physicochemical; conditions: ambient temperature, compound 22 as acetate salt, salt free equivalent, read-out: Solubility
[10] = Pharmacokinetics in chimpanzee, IV dose; conditions: female, in vivo, chimpanzees, 1-mg/kg IV 60-minute infusion, mean of 2 chimps
Experimental: Pharmacokinetic studies were performed in six adult female chimpanzees. Two chimpanzees received 1-mg/kg IV dose of compound 22 formulated in 5% dextrose (60-minute infusion). Two chimpanzees received 10-mg/kg oral dose of compound 22 formulated in 5% citric acid (oral bolus). Two chimpanzees received 1-mg/kg IV dose of anidulafungin formulated as package label (5% dextrose, 60-minute infusion). Plasma samples were collected from all chimps for 10 days to 22 days. PK curves are depicted in FIGS. 16A, 16B, and 18. All pharmacokinetic calculations were performed using WinNonlin version 4.1 (Pharsight Corp) by noncompartmental analysis.

Stability in rat plasma = assay type: in vitro ADME; conditions: rat plasma, 37° C.
Experimental: as §1

SMILES: CCCCCOc1ccc(-c2ccc(-c3ccc(C(=O)N[C@H]4C[C@@H](O)[C@@H](O)NC(=O)[C@@H]5[C@@H](O)[C@@H](C)CN5C(=O)[C@H]([C@@H](C)O)NC(=O)[C@H]([C@H](O)[C@@H](O)c5ccc(O)cc5)NC(=O)[C@@H]5C[C@@H](O)CN5C(=O)[C@H]([C@@H](C)O)NC4=O)cc3)cc2)cc1 [Anidulafungin, anidulafungin, reference compound] ({pTerphenylCO(4''-OnC5H11)}-[Orn(4R-OH,5R-OH)]T[Hyp][hTyr(3S-OH,4S-OH)]T[Pro(3S-OH,4S-Me)]; lactam 1-C)
- % BA in saline ([1]; oral about 7-10 mg/kg, formulation 11 (saline)): 7.80%
- % BA ([1]; formulation 1): (14.3%)
- Improvement (ratio of % oral bioavailability to saline) ([1]; formulation 1): 1.8
- Improvement (ratio of % oral bioavailability to saline) ([1]; formulation 2): NI
- % BA ([1]; formulation 3): (9.80%)
- Improvement (ratio of % oral bioavailability to saline) ([1]; formulation 3): 1.3
- Improvement (ratio of % oral bioavailability to saline) ([1]; formulation 4): NI^4
- % BA ([1]; formulation 5): (16.5%)
- Improvement (ratio of % oral bioavailability to saline) ([1]; formulation 5): 2.1
- Improvement (ratio of % oral bioavailability to saline) ([1]; formulation 6): NI
- % remaining ([2]; 0 h): 100%
- % remaining ([2]; 1 h): 102%
- % remaining ([2]; 2 h): 98.0%
- % remaining ([2]; 4 h): 61.8%
- % remaining ([2]; 8 h): 72.0%
- % remaining ([2]; 21 h): 51.2%
- % remaining ([2]; 44 h): 7.3%
- Half-life [3]: 8 h
- Half-life [4]: 30 h
- % remaining ([5]; 0 h): 100%
- % remaining ([5]; 1 h): 100%
- % remaining ([5]; 2 h): 97.8%
- % remaining ([5]; 4 h): 87.4%
- % remaining ([5]; 8 h): 86.0%
- % remaining ([5]; 21 h): 68.9%
- % remaining ([5]; 44 h): 41.9%
- Half-life [6]: 12 h
- Mean clearance [7]: 0.785 mL/min/kg
- T1/2 [7]: 11.6 h
- Volume of Distribution [7]: 0.779 L/kg
- AUC ([7]; dog, in vivo, read-out: AUC): 27800 ng·h/mL
- Cmax ([7]; dog, in vivo, read-out: Cmax): 3230 ng/mL
- Half-life [8]: 22 h
- solubility ([9]; Sterile Water for injection): < 10 µg/mL
- solubility ([9]; aqueous buffer, Acetate buffer (0.01M, pH 4.5)): < 10 µg/mL
- solubility ([9]; aqueous buffer, Acetate buffer (0.01M, pH 5.5)): < 10 µg/mL
- solubility ([9]; aqueous buffer, Tris buffer (0.01M, pH 8.5)): < 10 µg/mL
- solubility ([9]; aqueous with cosolvent or surfactant or cyclodextrin, 90% Water:10% glycerol): < 10 µg/mL
- clearance ([10]; read-out: Clearance (converted)): 0.417 mL/min/kg
- Half-life ([10]; read-out: Plasma half-life (IV) (converted)): 30 h
- Vd ([10]; read-out: Volume of distribution): 1.1 L/kg
- % remaining (Stability in rat plasma; 0 h): 100%
- % remaining (Stability in rat plasma; 1 h): 84.3%
- % remaining (Stability in rat plasma; 2 h): 76.5%
- % remaining (Stability in rat plasma; 4 h): 45.6%
- % remaining (Stability in rat plasma; 8 h): 23.2%
- % remaining (Stability in rat plasma; 21 h): 7.3%
- % remaining (Stability in rat plasma; 44 h): 7.4%
